From PubChem BioAssay (NCI)
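All cell lines were grown in 96-well plates and treated with compound for 48 hours. The concentration for 50% growth inhibition is given as GI50. TGI: concentration producing complete growth inhibition.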

Assays:
Experiment in all cases: DTP human tumour cell line panel, 48 h
MCF7 breast = system: MCF7 breast
MOLT-4 leukemia = system: MOLT-4 leukemia
OVCAR-8 ovarian = system: OVCAR-8 ovarian
HOP-62 NSCLC = system: HOP-62 NSCLC
HCT-116 colon = system: HCT-116 colon
SNB-19 CNS = system: SNB-19 CNS
NCI/ADR-RES ovarian = system: NCI/ADR-RES ovarian
UACC-257 melanoma = system: UACC-257 melanoma
KM12 colon = system: KM12 colon
SK-MEL-5 melanoma = system: SK-MEL-5 melanoma
CCRF-CEM leukemia = system: CCRF-CEM leukemia
A549 NSCLC = system: A549 NSCLC
SK-MEL-28 melanoma = system: SK-MEL-28 melanoma
SF-295 CNS = system: SF-295 CNS
HT29 colon = system: HT29 colon
SNB-75 CNS = system: SNB-75 CNS
MDA-MB-435 = system: MDA-MB-435
NCI-H522 lung = system: NCI-H522 lung
PC-3 prostate = system: PC-3 prostate
HOP-92 NSCLC = system: HOP-92 NSCLC
NCI-H460 lung = system: NCI-H460 lung
ACHN renal = system: ACHN renal
MDA-MB-231 breast = system: MDA-MB-231 breast
OVCAR-3 ovarian = system: OVCAR-3 ovarian
HCT-15 colon = system: HCT-15 colon
OVCAR-4 ovarian = system: OVCAR-4 ovarian
RPMI-8226 leukemia = system: RPMI-8226 leukemia
CAKI-1 renal = system: CAKI-1 renal
T-47D breast = system: T-47D breast
K-562 leukemia = system: K-562 leukemia
U251 CNS = system: U251 CNS
BT-549 breast = system: BT-549 breast
OVCAR-5 ovarian = system: OVCAR-5 ovarian
RXF 393 renal = system: RXF 393 renal
MALME-3M melanoma = system: MALME-3M melanoma
TK-10 renal = system: TK-10 renal
UACC-62 melanoma = system: UACC-62 melanoma
HS 578T breast = system: HS 578T breast
SW-620 colon = system: SW-620 colon
SK-MEL-2 melanoma = system: SK-MEL-2 melanoma
UO-31 renal = system: UO-31 renal
NCI-H23 lung = system: NCI-H23 lung
IGROV1 ovarian = system: IGROV1 ovarian
HCC-2998 colon = system: HCC-2998 colon
HL-60(TB) leukemia = system: HL-60(TB) leukemia
NCI-H226 lung = system: NCI-H226 lung
M14 melanoma = system: M14 melanoma
A498 renal = system: A498 renal
COLO 205 colon = system: COLO 205 colon
SR leukemia = system: SR leukemia
DU-145 prostate = system: DU-145 prostate
SF-268 CNS = system: SF-268 CNS
SF-539 CNS = system: SF-539 CNS
SN12C renal = system: SN12C renal
786-0 renal = system: 786-0 renal
SK-OV-3 ovarian = system: SK-OV-3 ovarian

`COc1ccc(-c2nc(Nc3cc(C)[nH]n3)c3ccccc3n2)cc1` was tested, and the GI50 (MCF7 breast) was 1.71 µM, the TGI (MCF7 breast) was 44.6 µM and the GI50 (MOLT-4 leukemia) was 3.67 µM. The TGI (MOLT-4 leukemia) was 58.5 µM, the GI50 (OVCAR-8 ovarian) was 6.16 µM and the TGI (OVCAR-8 ovarian) was 99.8 µM. The GI50 (HOP-62 NSCLC) was 1.17 µM, the TGI (HOP-62 NSCLC) was > 26.2 µM and the GI50 (HCT-116 colon) was 0.744 µM. For the same compound, the TGI (HCT-116 colon) was 17.5 µM, the GI50 (SNB-19 CNS) was 2.88 µM and the TGI (SNB-19 CNS) was > 100 µM. The GI50 (NCI/ADR-RES ovarian) was 3.25 µM, the TGI (NCI/ADR-RES ovarian) was > 58.1 µM and the GI50 (UACC-257 melanoma) was 13 µM. For the same compound, the TGI (UACC-257 melanoma) was 65.2 µM, the GI50 (KM12 colon) was 0.0994 µM and the TGI (KM12 colon) was 29.1 µM. The GI50 (SK-MEL-5 melanoma) was 4.11 µM, the TGI (SK-MEL-5 melanoma) was 22.7 µM and the GI50 (CCRF-CEM leukemia) was 5.18 µM. For the same compound, the TGI (CCRF-CEM leukemia) was 66.2 µM, the GI50 (A549 NSCLC) was 2.33 µM and the TGI (A549 NSCLC) was 44.9 µM. The GI50 (SK-MEL-28 melanoma) was 5.12 µM, the TGI (SK-MEL-28 melanoma) was > 100 µM and the GI50 (SF-295 CNS) was 2.61 µM. The TGI (SF-295 CNS) was > 71.4 µM, the GI50 (HT29 colon) was 1.19 µM and the TGI (HT29 colon) was 5.15 µM. It also gave a GI50 (SNB-75 CNS) of 0.289 µM, a TGI (SNB-75 CNS) of 2.27 µM and a GI50 (MDA-MB-435) of 1.3 µM. The TGI (MDA-MB-435) was > 100 µM, the GI50 (NCI-H522 lung) was 1.67 µM and the TGI (NCI-H522 lung) was 19.8 µM. For the same compound, the GI50 (PC-3 prostate) was 1.48 µM, the TGI (PC-3 prostate) was 66.1 µM and the GI50 (HOP-92 NSCLC) was 0.621 µM. For the same compound, the TGI (HOP-92 NSCLC) was 3.77 µM, the GI50 (NCI-H460 lung) was 3.1 µM and the TGI (NCI-H460 lung) was > 100 µM. The GI50 (ACHN renal) was 0.801 µM, the TGI (ACHN renal) was > 100 µM and the GI50 (MDA-MB-231 breast) was 4.21 µM. For the same compound, the TGI (MDA-MB-231 breast) was > 100 µM, the GI50 (OVCAR-3 ovarian) was 3.72 µM and the TGI (OVCAR-3 ovarian) was 38.8 µM. For the same compound, the GI50 (HCT-15 colon) was 1.34 µM, the TGI (HCT-15 colon) was > 100 µM and the GI50 (OVCAR-4 ovarian) was 2.34 µM. The TGI (OVCAR-4 ovarian) was > 72.5 µM, the GI50 (RPMI-8226 leukemia) was 4.16 µM and the TGI (RPMI-8226 leukemia) was 28.6 µM. The GI50 (CAKI-1 renal) was 0.52 µM, the TGI (CAKI-1 renal) was > 64.1 µM and the GI50 (T-47D breast) was 1.59 µM. The TGI (T-47D breast) was > 25.6 µM, the GI50 (K-562 leukemia) was 3.25 µM and the TGI (K-562 leukemia) was > 100 µM. For the same compound, the GI50 (U251 CNS) was 1.16 µM, the TGI (U251 CNS) was > 100 µM and the GI50 (BT-549 breast) was 3.07 µM. For the same compound, the TGI (BT-549 breast) was 12.6 µM, the GI50 (OVCAR-5 ovarian) was 2.25 µM and the TGI (OVCAR-5 ovarian) was > 88 µM. It also gave a GI50 (RXF 393 renal) of 0.6 µM, a TGI (RXF 393 renal) of 2.67 µM and a GI50 (MALME-3M melanoma) of 28.5 µM. The TGI (MALME-3M melanoma) was > 100 µM, the GI50 (TK-10 renal) was 0.865 µM and the TGI (TK-10 renal) was 8.11 µM. For the same compound, the GI50 (UACC-62 melanoma) was 2.37 µM, the TGI (UACC-62 melanoma) was > 100 µM and the GI50 (HS 578T breast) was 0.678 µM. The TGI (HS 578T breast) was 4.6 µM, the GI50 (SW-620 colon) was 2.14 µM and the TGI (SW-620 colon) was > 100 µM. The GI50 (SK-MEL-2 melanoma) was 0.44 µM, the TGI (SK-MEL-2 melanoma) was 40.6 µM and the GI50 (UO-31 renal) was 0.529 µM. For the same compound, the TGI (UO-31 renal) was 14.9 µM, the GI50 (NCI-H23 lung) was 5.47 µM and the TGI (NCI-H23 lung) was > 100 µM. For the same compound, the GI50 (IGROV1 ovarian) was 0.686 µM, the TGI (IGROV1 ovarian) was 7.12 µM and the GI50 (HCC-2998 colon) was 3.35 µM. For the same compound, the TGI (HCC-2998 colon) was > 77.4 µM, the GI50 (HL-60(TB) leukemia) was 1.58 µM and the TGI (HL-60(TB) leukemia) was > 35.2 µM. The GI50 (NCI-H226 lung) was 1.62 µM, the TGI (NCI-H226 lung) was > 33.3 µM and the GI50 (M14 melanoma) was 0.75 µM. It also gave a TGI (M14 melanoma) of 31.4 µM, a GI50 (A498 renal) of 0.271 µM and a TGI (A498 renal) of 1.46 µM. For the same compound, the GI50 (COLO 205 colon) was 1.5 µM, the TGI (COLO 205 colon) was 3.61 µM and the GI50 (SR leukemia) was 0.581 µM. For the same compound, the TGI (SR leukemia) was 25.4 µM, the GI50 (DU-145 prostate) was 3.75 µM and the TGI (DU-145 prostate) was > 100 µM. For the same compound, the GI50 (SF-268 CNS) was 2.42 µM, the TGI (SF-268 CNS) was > 59.4 µM and the GI50 (SF-539 CNS) was 1.47 µM. For the same compound, the TGI (SF-539 CNS) was 4.15 µM, the GI50 (SN12C renal) was 2.01 µM and the TGI (SN12C renal) was > 100 µM. For the same compound, the GI50 (786-0 renal) was 1.27 µM, the TGI (786-0 renal) was > 31.3 µM and the GI50 (SK-OV-3 ovarian) was 1.39 µM. The TGI (SK-OV-3 ovarian) was > 100 µM.
